Earlier results on four compounds are cited in patent US20070298000A1, “High SPF transparent or translucent naturally derived, cytoprotective, UV radiation resistant compositions” (priority 2006, published 2007).

The test system of series [1] is cancer cells.
In series [2] the test system is uterine wet weight, cell height, cell proliferation. As to conditions: cell proliferation assays.

For the compound `CCCCC(CC)COC(=O)c1ccc(N(C)C)cc1` (stereo not drawn) [octyl-dimethyl-PABA], the “effect on growth of cancer cells / activity in cells” value in series [1] is given as “made cancer cells grow more rapidly”.

With `COc1ccc(C(=O)c2ccccc2)c(O)c1` [benzophenone-s], the “effect on growth of cancer cells / activity in cells” value in series [1] is “made cancer cells grow more rapidly”. The estrogenicity result in series [2] is recorded as “highly estrogenic”.

With `Cc1ccc(C=C2C(=O)C3(C)CCC2C3(C)C)cc1` (stereo not drawn) [4-methyl-benzylidene camphor, 3-(4-methylbenxylidene) camphor], the “effect on growth of cancer cells / activity in cells” value in series [1] is on record as “made cancer cells grow more rapidly”. Besides, the estrogenicity entry in series [2] is on record as “highly estrogenic”.

As for `CC1CC(OC(=O)c2ccccc2O)CC(C)(C)C1` (stereo not drawn) [homosalate], the “effect on growth of cancer cells / activity in cells” value in series [1] is “made cancer cells grow more rapidly”.
